In US12514833B2, “Combination of ibuprofen and tramadol for relieving pain” (FARMALÍDER, S.A., priority 2019, dated 2026):
Where a name gives a salt, the structure may show the parent alone.

Experiments:
Format in all cases: in vivo, human
[1] = test system: patients with visceral moderate to intense pain after non-oncologic abdominal hysterectomy; assay: Example 3: phase III trial, oral ibuprofen arginate/tramadol HCl (400/37.5), pain after hysterectomy (VAS, rescue medication, adverse effects); conditions: tramadol HCl 50 mg; for Total rescued patients (number) / Total rescued patients (%): 8 doses every 6 hours, 48 hours; for Total rescued patients (number): N = 91/94/98, ibuprofen arginate 400 mg; for Total rescued patients (%) / Rescued patients at 24 h (%) / Rescued patients at 24 h (number) / Average time until rescue: ibuprofen arginate 400 mg; for Rescued patients at 24 h (%) / Rescued patients at 24 h (number): first 24 h of the study
Procedure: (§1) A phase III, multicentre, randomized, double-blind, placebo-controlled, study was performed to assess the compared efficacy and safety of the combination of ibuprofen arginate/tramadol HCl (400 mg ibuprofen/37.5 mg tramadol HCl) administered by the oral route, compared to oral tramadol (50 mg), oral ibuprofen arginate (400 mg ibuprofen) and placebo for treating adult patients (aged 18 or more) suffering from visceral moderate to intense pain after non-oncologic abdominal hysterectomy.
(§2) Pain intensity was assessed using the Visual Analogue Scale (VAS).
The patients selected for the study were adults suffering from moderate to severe pain (VAS 0-100≥40 mm) after total or partial abdominal hysterectomy for benign, non-oncologic disease, which required hospitalization during at least 48 hours.
The patients were divided in four groups, receiving the following medication: • Group 1: ibuprofen arginate/tramadol HCl 400 mg/37.5 mg (91 patients) • Group 2: ibuprofen arginate 400 mg (94 patients) • Group 3: tramadol HCl 50 mg (98 patients) • Group 4: placebo (93 patients)
(§3) The amount of ibuprofen arginate (400 mg) is expressed as the amount of ibuprofen in acidic form.
The combination of ibuprofen arginate/tramadol HCl administered to the patients of Group 1 was in the form of granulate for oral administration (as described in Example 4 below). Each dosage comprised 340 mg of L-arginine.
Patients of Group 2 received the commercial medicine Espidifen® 400 mg, each dose comprising 400 mg of ibuprofen, as 770 mg of ibuprofen arginate.
Patients of Group 3 received the commercial medicine Adolonta® 100 mg/ml oral solution, and a dose of 50 mg of tramadol HCl was administered.
After the surgery, the pain intensity of each patient was evaluated according to the VAS test until reaching the value ≥40 mm. At that moment, each patient was recruited and assigned to one of the four groups in a randomized way and the corresponding medication was administered. A new VAS test was performed after the administration of the first dose of the medication, which was taken as the basal value. Subsequently, 7 more doses of the assigned medication were administered, with an interval of 6 hours between doses, so a total of 8 doses were administered to each patient.
After the administration of the first dosage of each medication, the evolution of the patients was followed until 48 hours after the first dosage, by assessing the change in pain intensity.
After 30 minutes from the first dosage, patients were allowed to request a rescue medication, if needed. Rescue medication was 1 g paracetamol given by the oral route. If a second rescue medication was necessary, a capsule of 575 mg metamizole was administered.
Pain intensity was assessed for each patient at the following time points: 0 (basal), 1, 2, 4, 6, 8, 10, 12, 18, 24, 30, 36, 42 and 48 hours after the administration of the first dosage of the medication. For each of the four groups, the average VAS value was calculated at each time point.

[2] = test system: patients with moderate to intense somatic pain after dental surgery; assay: Example 2: phase III trial, oral ibuprofen arginate/tramadol (400/37.5), pain after dental surgery (VAS, rescue medication, safety); conditions: 4 doses every 6 hours, 24 hours follow-up, tramadol HCl 50 mg; for Number of rescued patients: N = 95/97/98, ibuprofen arginate 400 mg; for % of rescued patients: ibuprofen arginate 400 mg
Procedure: as §1, with “placebo-controlled” for “placebo-controlled,”, “from” for “from visceral”, “intense somatic” for “intense”, “dental surgery.” for “non-oncologic abdominal hysterectomy.”
as §2
The patients selected for the study were adults suffering from moderate to severe pain (VAS 0-100≥45 mm) after surgical extraction of at least two third molars, if only two third molars were extracted, they should be ipsilateral and at least one of them impacted, involving bone removal.
The patients were divided in four groups, receiving the following medication: • Group 1: ibuprofen arginate/tramadol HCl 400 mg/37.5 mg (95 patients) • Group 2: ibuprofen arginate 400 mg (97 patients) • Group 3: tramadol HCl 50 mg (98 patients) • Group 4: placebo (93 patients)
as §3
The combination of ibuprofen arginate/tramadol HCl administered to the patients of Group 1 was in the form of a granulate for oral administration (as described in Example 4). Each dosage comprised 340 mg of L-arginine.
The ibuprofen arginate 400 mg administered to the patients of Group 2 corresponded to the commercial medicine Espidifen® 400 mg, each dose comprising 400 mg of ibuprofen, given as 770 mg of ibuprofen arginate.
The 50 mg dose of tramadol HCl 50 mg of Group 3 was administered using the commercial medicine Adolonta® 100 mg/ml oral solution.
After the dental surgery, the pain intensity of each patient was evaluated according to the VAS test until reaching the value ≥45 mm. At that moment, the patient was assigned to one of the four groups in a randomized way and the corresponding medication was administered. A new VAS test was performed after the administration of the first dose of the medication, which was taken as the basal value. 4 doses of each medication were administered, with an interval of 6 hours between doses.
After the administration of each medication, the evolution of patients was followed until 24 hours after the first dosage, by assessing the change in pain intensity.
Patients were allowed to ask for rescue medication during that period, starting 30 minutes after the administration of the first dosage. […]
Pain intensity was assessed for each patient at the following time points: 0 (basal), 1, 2, 3, 4, 5, 6, 8, 12 and 24 hours after the administration of the medication. For each of the four groups, the average VAS value was calculated.

[3] = test system: patients with moderate to intense pain after dental surgery; assay: Example 1: phase III pilot trial, intravenous ibuprofen arginate combined with tramadol, pain after dental surgery (VAS, rescue medication, adverse effects); conditions: for VAS (average value): single iv infusion
Procedure: A phase III, multicentre, randomized, double-blind, placebo-controlled, pilot study was performed to assess the compared efficacy and safety of intravenous ibuprofen arginate (400 mg) combined with two different doses of tramadol hydrochloride (37.5 and 75 mg) and of intravenous tramadol 100 mg in patients suffering from moderate to intense pain after dental surgery.
as §2
The patients were divided in four groups, receiving the following medication: • Group 1: ibuprofen arginate/tramadol HCl 400 mg/37.5 mg (16 patients) • Group 2: ibuprofen arginate/tramadol HCl 400 mg/75 mg (18 patients) • Group 3: tramadol HCl 100 mg (18 patients) • Group 4: placebo (saline solution) (17 patients)
The amount of ibuprofen arginate (400 mg) is expressed as the amount of ibuprofen in acidic form. The amount of L-arginine in each composition in groups 1 and 2 was 356 mg, which corresponds to a molar ratio ibuprofen:arginine 1:1.054.
The compositions of groups 1 to 3 were aqueous solutions of the drugs prepared with water for injection. Other excipients included in the compositions were sodium chloride, used as tonicity agent, to reach an osmolality of 310-360 mOsm/Kg, and hydrochloric acid and sodium hydroxide to adjust the pH of the solution to a value in the range 6.8-7.8. The volume of the composition in all groups was 100 ml, which was infused intravenously during 30 minutes, in a single administration. The preparation of the composition used for Group 1 is analogous as disclosed in Example 5. The preparation of the composition used for Group 2 was equivalent, but using 75 mg of tramadol HCl instead of 37.5 mg.
Thus, after the dental surgery, the pain intensity of each patient was evaluated according to the VAS test until reaching the value ≥55 mm. At that moment, the patient was assigned to one of the four groups in a randomized way and the corresponding medication was administered not later than 15 minutes after randomization and not later than 25 minutes after VAS test. A new VAS test was performed at the beginning of the infusion, which was taken as the basal value.
After the administration of each medication, the evolution of patients was followed during 4 hours, by assessing the change in pain intensity.
Patients were allowed to ask for rescue medication during that period, starting 30 minutes after the administration of each treatment. Rescue medication was 1 g paracetamol given by the oral route. If a second rescue medication was necessary, a capsule of 575 mg metamizole was administered. If rescue medication was administered before 4 hours after the administration of the study medication, the patient left the study (but remained still included for assessing safety parameters and was under monitoring for further 4 hours).
Pain intensity was assessed for each patient at the following time points: 0 (basal), 15, 30, 45, 60, 75, 90, 105, 120, 150, 180, 210, and 240 minutes after the administration of the medication. For each of the four groups, the average VAS value was calculated.

## CC(C)Cc1ccc(C(C)C(=O)O)cc1 (racemic) [ibuprofen arginate, (RS)-2-(4-(2-methylpropyl)phenyl)propanoic acid]
[1]
  Total rescued patients (number): 23
  Total rescued patients (%): 24.5%
  Rescued patients at 24 h (%): 22.3%
  Rescued patients at 24 h (number): 21
  Average time until rescue: 8.43 h
[2]
  Number of rescued patients: 6
  % of rescued patients: 6.2%

## COc1cccc([C@]2(O)CCCC[C@H]2CN(C)C)c1 (racemic) [tramadol HCl, (±)-cis-2-[(dimethylamino)methyl]-1-(3-methoxyphenyl) cyclohexanol]
[3]; iv, 4 hours follow-up, N = 16/18/18, tramadol HCl alone 100 mg
  Number of rescued patients: 9
[3]; iv, 4 hours follow-up, tramadol HCl alone 100 mg
  % of rescued patients: 50.0%
[3]; iv, N = 16/18/18, tramadol HCl alone 100 mg
  Number of patients reporting AE: 5
[3]; iv, tramadol HCl alone 100 mg
  % of patients reporting AE: 27.8%
  Average time until rescue: 70 min
  Number of AE: 9
[3]; 15 min after administration, tramadol HCl alone 100 mg
  VAS (average value): 48.55 mm
[3]; 30 min, tramadol HCl alone 100 mg
  VAS (average value): 45.28 mm
[3]; 45 min, tramadol HCl alone 100 mg
  VAS (average value): 47.11 mm
[3]; 60 min, tramadol HCl alone 100 mg
  VAS (average value): 51.67 mm
[3]; 75 min, tramadol HCl alone 100 mg
  VAS (average value): 54.72 mm
[3]; 90 min, tramadol HCl alone 100 mg
  VAS (average value): 54.44 mm
[3]; 105 min, tramadol HCl alone 100 mg
  VAS (average value): 53.67 mm
[3]; 120 min, tramadol HCl alone 100 mg
  VAS (average value): 51.55 mm
[3]; 150 min, tramadol HCl alone 100 mg
  VAS (average value): 49.39 mm
[3]; 180 min, tramadol HCl alone 100 mg
  VAS (average value): 47.94 mm
[3]; 210 min, tramadol HCl alone 100 mg
  VAS (average value): 46.72 mm
[3]; 240 min, tramadol HCl alone 100 mg
  VAS (average value): 44.50 mm
[3]; time 0 min (basal), tramadol HCl alone 100 mg
  VAS (average value): 72.83 mm
[1]
  Total rescued patients (number): 31
  Total rescued patients (%): 31.6%
  Rescued patients at 24 h (%): 28.6%
  Rescued patients at 24 h (number): 28
  Average time until rescue: 8.97 h
  number of adverse effects reported relative to Group 1 (ibuprofen/tramadol): twice
[2]
  Number of rescued patients: 38
  % of rescued patients: 38.8%
